Legend:
[1] = target: T1, human CYP11B1 (Homo sapiens, UniProt P15538); assay: Inhibition of hCYP11B1 in transfected V79 cells; assay type: cell-based; conditions: hamster V79 cells expressing human CYP11B1; substrate 11-deoxycortisol 200 nM
T1 construct: expressed in transfected cells
T1 sequence (P15538 25-503): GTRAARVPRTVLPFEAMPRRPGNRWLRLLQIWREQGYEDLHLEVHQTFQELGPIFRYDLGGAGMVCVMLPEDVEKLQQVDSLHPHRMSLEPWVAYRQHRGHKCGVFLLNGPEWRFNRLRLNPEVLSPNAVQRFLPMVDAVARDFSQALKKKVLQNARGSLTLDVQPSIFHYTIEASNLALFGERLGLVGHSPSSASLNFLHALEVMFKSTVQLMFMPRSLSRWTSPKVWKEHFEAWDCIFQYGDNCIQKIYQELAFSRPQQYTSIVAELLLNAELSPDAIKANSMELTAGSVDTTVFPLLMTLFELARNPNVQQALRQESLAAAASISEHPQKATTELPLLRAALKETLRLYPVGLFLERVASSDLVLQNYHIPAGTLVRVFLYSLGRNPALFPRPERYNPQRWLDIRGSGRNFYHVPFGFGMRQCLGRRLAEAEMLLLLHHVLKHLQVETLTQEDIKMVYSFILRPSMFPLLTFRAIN
Outline: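 Reactions started with 200 nM 11-deoxycortisol, ran for 30 min and were stopped with ethyl acetate, after a 2 h compound preincubation. The host was stably transfected V79 hamster cells carrying human CYP11B1 plus rat P450 reductase. Percent inhibition, from LC-MS/MS or HPLC (260 nm) quantitation of substrate and product, gave the IC50.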

[2] = target: T2, human CYP11B2 (Homo sapiens, UniProt P19099); assay: Inhibition of hCYP11B2 in transfected V79 cells; assay type: cell-based; conditions: hamster V79 cells expressing human CYP11B2; substrate 11-deoxycorticosterone 200 nM
T2 construct: expressed in transfected cells
T2 sequence (P19099 25-503): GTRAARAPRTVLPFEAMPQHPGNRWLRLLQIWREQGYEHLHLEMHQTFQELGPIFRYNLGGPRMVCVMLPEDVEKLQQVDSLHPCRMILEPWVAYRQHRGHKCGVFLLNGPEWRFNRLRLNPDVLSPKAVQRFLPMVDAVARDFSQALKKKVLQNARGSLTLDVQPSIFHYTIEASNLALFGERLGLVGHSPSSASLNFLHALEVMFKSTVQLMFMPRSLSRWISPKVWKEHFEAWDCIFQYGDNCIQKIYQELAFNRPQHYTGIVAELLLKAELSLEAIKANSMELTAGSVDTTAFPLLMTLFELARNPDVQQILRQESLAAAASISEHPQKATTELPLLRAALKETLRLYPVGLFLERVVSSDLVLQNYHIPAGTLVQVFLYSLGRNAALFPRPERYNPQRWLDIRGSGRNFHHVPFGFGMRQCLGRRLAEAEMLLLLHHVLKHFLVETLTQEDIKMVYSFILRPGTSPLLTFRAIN
Outline: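 The substrate (200 nM, 30 min) was added after a 2 hour compound pre-incubation in lentivirus-transduced V79 cells stably expressing human CYP11B2 plus rat NADPH-P450 reductase.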

| Compound | IC50 [1] | IC50 [2] |
| --- | --- | --- |
| N#Cc1ccc(-c2cncc3c2OCCN3C(=O)c2ccc([N+](=O)[O-])cc2)cc1 [O26, 4-(4-(4-Nitrobenzoyl)-3,4-dihydro-2H-pyrido[4,3-b][1,4]oxazin-8-yl)benzonitrile] | 1.45 µM | 0.0224 µM |
| N#Cc1ccc(-c2cncc3c2OCCN3C(=O)c2cccc([N+](=O)[O-])c2)cc1 [O27, 4-(4-(3-Nitrobenzoyl)-3,4-dihydro-2H-pyrido[4,3-b][1,4]oxazin-8-yl)benzonitrile] | 1.2 µM | 0.0236 µM |
| N#Cc1ccc(-c2cncc3c2OCCN3C(=O)c2ccc(Cl)cc2)cc1 [O28, 4-(4-(4-Chlorobenzoyl)-3,4-dihydro-2H-pyrido[4,3-b][1,4]oxazin-8-yl)benzonitrile] | 0.277 µM | 0.0209 µM |
| N#Cc1ccc(-c2cncc3c2OCCN3C(=O)c2cccc(Cl)c2)cc1 [O29, 4-(4-(3-Chlorobenzoyl)-3,4-dihydro-2H-pyrido[4,3-b][1,4]oxazin-8-yl)benzonitrile] | 1.71 µM | 0.0059 µM |
| N#Cc1ccc(-c2cncc3c2OCCN3C(=O)c2cccnc2)cc1 [O30, 4-(4-Nicotinoyl-3,4-dihydro-2H-pyrido[4,3-b][1,4]oxazin-8-yl)benzonitrile] | 4.69 µM | 0.11 µM |
| N#Cc1ccc(-c2cncc3c2OCCN3C(=O)c2ccco2)cc1 [O31, 4-(4-(Furan-2-carbonyl)-3,4-dihydro-2H-pyrido[4,3-b][1,4]oxazin-8-yl)benzonitrile] | 0.187 µM | 0.0028 µM |
| N#CCC(=O)N1CCOc2c(-c3ccc(C#N)cc3)cncc21 [O32, 4-(4-(2-Cyanoacetyl)-3,4-dihydro-2H-pyrido[4,3-b][1,4]oxazin-8-yl)benzonitrile] | 0.785 µM | 0.018 µM |
| N#Cc1ccc(-c2cncc3c2OCCN3C(=O)CCl)cc1 [O33, 4-(4-(2-Chloroacetyl)-3,4-dihydro-2H-pyrido[4,3-b][1,4]oxazin-8-yl)benzonitrile] | 1.27 µM | 0.0183 µM |
| N#Cc1ccc(-c2cncc3c2OCCN3C(=O)CBr)cc1 [O34, 4-(4-(2-Bromoacetyl)-3,4-dihydro-2H-pyrido[4,3-b][1,4]oxazin-8-yl)benzonitrile] | 0.546 µM | 0.0174 µM |
| N#Cc1ccc(-c2cncc3c2OCCN3C(=O)C(F)(F)F)cc1 [O35, 4-(4-(2,2,2-Trifluoroacetyl)-3,4-dihydro-2H-pyrido[4,3-b][1,4]oxazin-8-yl)benzonitrile] | 0.101 µM | 0.0009 µM |
| N#Cc1ccc(-c2cncc3c2OCCN3C(=O)Cc2ccc(F)cc2)cc1 [O36, 4-(4-(2-(4-Fluorophenyl)acetyl)-3,4-dihydro-2H-pyrido[4,3-b][1,4]oxazin-8-yl)benzonitrile] | 0.262 µM | 0.0018 µM |
| N#Cc1ccc(-c2cncc3c2OCCN3C(=O)Cc2cccc(F)c2)cc1 [O37, 4-(4-(2-(3-Fluorophenyl)acetyl)-3,4-dihydro-2H-pyrido[4,3-b][1,4]oxazin-8-yl)benzonitrile] | 0.086 µM | 0.0014 µM |

More lines, now with the values ahead:

| IC50 [1] | IC50 [2] | Compound |
| --- | --- | --- |
| 0.559 µM | 0.0168 µM | N#Cc1ccc(-c2cncc3c2OCCN3C(=O)Cc2ccc(Cl)cc2)cc1 [O38, 4-(4-(2-(4-Chlorophenyl)acetyl)-3,4-dihydro-2H-pyrido[4,3-b][1,4]oxazin-8-yl)benzonitrile] |
| 0.142 µM | 0.0026 µM | N#Cc1ccc(-c2cncc3c2OCCN3C(=O)Cc2cccc(Cl)c2)cc1 [O39, 4-(4-(2-(3-Chlorophenyl)acetyl)-3,4-dihydro-2H-pyrido[4,3-b][1,4]oxazin-8-yl)benzonitrile] |
| 0.073 µM | 0.0008 µM | COc1ccc(CC(=O)N2CCOc3c(-c4ccc(C#N)cc4)cncc32)cc1 [O40, 4-(4-(2-(4-Methoxyphenyl)acetyl)-3,4-dihydro-2H-pyrido[4,3-b][1,4]oxazin-8-yl)benzonitrile] |
| 0.052 µM | 0.0018 µM | COc1cccc(CC(=O)N2CCOc3c(-c4ccc(C#N)cc4)cncc32)c1 [O41, 4-(4-(2-(3-Methoxyphenyl)acetyl)-3,4-dihydro-2H-pyrido[4,3-b][1,4]oxazin-8-yl)benzonitrile] |
| 0.067 µM | 0.0006 µM | Cc1ccc(CC(=O)N2CCOc3c(-c4ccc(C#N)cc4)cncc32)cc1 [O42, 4-(4-(2-(p-Tolyl)acetyl)-3,4-dihydro-2H-pyrido[4,3-b][1,4]oxazin-8-yl)benzonitrile] |
| 0.125 µM | 0.0047 µM | Cc1cccc(CC(=O)N2CCOc3c(-c4ccc(C#N)cc4)cncc32)c1 [O43, 4-(4-(2-(m-Tolyl)acetyl)-3,4-dihydro-2H-pyrido[4,3-b][1,4]oxazin-8-yl)benzonitrile] |
| 0.084 µM | 0.0048 µM | Cc1ccccc1CC(=O)N1CCOc2c(-c3ccc(C#N)cc3)cncc21 [O44, 4-(4-(2-(o-Tolyl)acetyl)-3,4-dihydro-2H-pyrido[4,3-b][1,4]oxazin-8-yl)benzonitrile] |
| 0.614 µM | 0.0151 µM | N#Cc1ccc(-c2cncc3c2OCCN3C(=O)Cc2ccc(C(F)(F)F)cc2)cc1 [O45, 4-(4-(2-(4-(Trifluoromethyl)phenyl)acetyl)-3,4-dihydro-2H-pyrido[4,3-b][1,4]oxazin-8-yl)benzonitrile] |
| 0.24 µM | 0.0057 µM | N#Cc1ccc(-c2cncc3c2OCCN3C(=O)Cc2cccc(C(F)(F)F)c2)cc1 [O46, 4-(4-(2-(3-(Trifluoromethyl)phenyl)acetyl)-3,4-dihydro-2H-pyrido[4,3-b][1,4]oxazin-8-yl)benzonitrile] |
| 0.052 µM | 0.0038 µM | N#Cc1ccc(-c2cncc3c2OCCN3C(=O)CCc2ccc(F)cc2)cc1 [O47, 4-(4-(3-(4-Fluorophenyl)propanoyl)-3,4-dihydro-2H-pyrido[4,3-b][1,4]oxazin-8-yl)benzonitrile] |
| 0.117 µM | 0.0021 µM | N#Cc1ccc(-c2cncc3c2OCCN3C(=O)CCc2cccc(F)c2)cc1 [O48, 4-(4-(3-(3-Fluorophenyl)propanoyl)-3,4-dihydro-2H-pyrido[4,3-b][1,4]oxazin-8-yl)benzonitrile] |
| 0.054 µM | 0.0016 µM | N#Cc1ccc(-c2cncc3c2OCCN3C(=O)CCc2ccc(Cl)cc2)cc1 [O49, 4-(4-(3-(4-Chlorophenyl)propanoyl)-3,4-dihydro-2H-pyrido[4,3-b][1,4]oxazin-8-yl)benzonitrile] |
| 0.042 µM | 0.005 µM | N#Cc1ccc(-c2cncc3c2OCCN3C(=O)CCc2cccc(Cl)c2)cc1 [O50, 4-(4-(3-(3-Chlorophenyl)propanoyl)-3,4-dihydro-2H-pyrido[4,3-b][1,4]oxazin-8-yl) benzonitrile] |
| 0.024 µM | 0.0007 µM | COc1ccc(CCC(=O)N2CCOc3c(-c4ccc(C#N)cc4)cncc32)cc1 [O51, 4-(4-(3-(4-Methoxyphenyl)propanoyl)-3,4-dihydro-2H-pyrido[4,3-b][1,4]oxazin-8-yl)benzo nitrile] |
| 0.051 µM | 0.0011 µM | COc1cccc(CCC(=O)N2CCOc3c(-c4ccc(C#N)cc4)cncc32)c1 [O52, 4-(4-(3-(3-Methoxyphenyl)propanoyl)-3,4-dihydro-2H-pyrido[4,3-b][1,4]oxazin-8-yl)benzonitrile] |
| 0.055 µM | 0.0082 µM | N#Cc1ccc(-c2cncc3c2OCCN3C(=O)CCc2ccc(C(F)(F)F)cc2)cc1 [O53, 4-(4-(3-(4-(Trifluoromethyl)phenyl)propanoyl)-3,4-dihydro-2H-pyrido[4,3-b][1,4]oxazin-8-yl)benzonitrile] |

From US20260092074A1, “Annelated Pyridines as Steroidogenesis Inhibitors, Preparation Method and Use Thereof” (Guangzhou Vinnocent Pharmaceutical Limited, priority 2022, published 2026)
